# Results published in patent publication US20240384268A1, “Oligonucleotides” (Hudson Institute of Medical Research, priority 2021, published 2024).
# In the oligonucleotide strings, read from the 5' end, every base follows the letter of its sugar. An asterisk marks phosphorothioate; unmarked linkages are phosphodiester. Other units and linkages are bracketed, terminal groups are in braces. A string of capitals states the bases alone. d = 2'-deoxy (DNA); m = 2'-O-methyl
# Target: T1, STING (Homo sapiens, UniProt Q86WV6)
# T1 construct: host or cells: MG-63 (human osteosarcoma)
# Assay: STING agonist (GSK, DMXAA)-driven IP-10 in MG-63 cells and immortalised mouse BMDMs
# Type: cell-based
# Conditions: C2-Mut1 500 nM 6 h (GSK 100 nM, DMXAA 50 μg/ml); MOE/LNA ASOs 1 mM as printed (GSK, MG-63)
# T1 sequence (Q86WV6 whole entry): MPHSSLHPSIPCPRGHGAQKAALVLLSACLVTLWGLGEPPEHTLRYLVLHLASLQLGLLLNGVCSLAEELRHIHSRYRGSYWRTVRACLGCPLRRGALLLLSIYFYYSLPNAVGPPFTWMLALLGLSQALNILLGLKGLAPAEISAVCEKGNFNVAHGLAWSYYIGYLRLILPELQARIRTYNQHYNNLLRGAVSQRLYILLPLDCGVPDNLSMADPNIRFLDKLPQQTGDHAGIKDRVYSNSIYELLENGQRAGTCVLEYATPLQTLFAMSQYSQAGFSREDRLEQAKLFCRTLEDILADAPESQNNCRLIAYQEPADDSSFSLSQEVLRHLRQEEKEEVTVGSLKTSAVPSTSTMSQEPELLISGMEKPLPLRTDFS
substance,measurement,value
mG*mC*mG*mG*mU*A*T*C*C*A*T*G*T*C*C*mC*mA*mG*mG*mC (mG*mC*mG*mG*mU*dA*dT*dC*dC*dA*dT*dG*dT*dC*dC*mC*mA*mG*mG*mC; antisense) [C2-Mut1],IP-10 production driven by STING synthetic agonists (in words),did not significantly affect IP-10 production
